Experimental data published in paper PMC6199309, “A therapeutic approach to pantothenate kinase associated neurodegeneration” (Nature Communications, 2018).

Tests used:
Assay in all cases: KINOMEscan
Type in all cases: binding
Settings in all cases: read-out: %Ctrl @ 10000nM
[1] = target: T1, ABL1(F317I)-phosphorylated (Homo sapiens, UniProt P00519, F317I)
T1 construct: purchased DiscoverX KINOMEscan

ACVR1 = target: T2, ACVR1 (Homo sapiens, UniProt Q04771)
T2 construct: purchased DiscoverX KINOMEscan

BRSK2 = target: T3, BRSK2 (Homo sapiens, UniProt Q8IWQ3)
T3 construct: purchased DiscoverX KINOMEscan

CSNK1G1 = target: T4, CSNK1G1 (Homo sapiens, UniProt Q9HCP0)
T4 construct: purchased DiscoverX KINOMEscan

DCAMKL2 = target: T5, DCAMKL2 (Homo sapiens, UniProt Q8N568)
T5 construct: purchased DiscoverX KINOMEscan

EGFR(G719S) = target: T6, EGFR(G719S) (Homo sapiens, UniProt P00533, G719S)
T6 construct: purchased DiscoverX KINOMEscan

EGFR(L858R) = target: T7, EGFR(L858R) (Homo sapiens, UniProt P00533, L858R)
T7 construct: purchased DiscoverX KINOMEscan

EPHA2 = target: T8, EPHA2 (Homo sapiens, UniProt P29317)
T8 construct: purchased DiscoverX KINOMEscan

EPHA4 = target: T9, EPHA4 (Homo sapiens, UniProt P54764)
T9 construct: purchased DiscoverX KINOMEscan

EPHA7 = target: T10, EPHA7 (Homo sapiens, UniProt Q15375)
T10 construct: purchased DiscoverX KINOMEscan

GSK3A = target: T11, GSK3A (Homo sapiens, UniProt P49840)
T11 construct: purchased DiscoverX KINOMEscan

HPK1 = target: T12, HPK1 (Homo sapiens, UniProt Q92918)
T12 construct: purchased DiscoverX KINOMEscan

IRAK4 = target: T13, IRAK4 (Homo sapiens, UniProt Q9NWZ3)
T13 construct: purchased DiscoverX KINOMEscan

LIMK1 = target: T14, LIMK1 (Homo sapiens, UniProt P53667)
T14 construct: purchased DiscoverX KINOMEscan

LKB1 = target: T15, LKB1 (Homo sapiens, UniProt Q15831)
T15 construct: purchased DiscoverX KINOMEscan

LOK = target: T16, LOK (Homo sapiens, UniProt O94804)
T16 construct: purchased DiscoverX KINOMEscan

MAP3K3 = target: T17, MAP3K3 (Homo sapiens, UniProt Q99759)
T17 construct: purchased DiscoverX KINOMEscan

MAP4K3 = target: T18, MAP4K3 (Homo sapiens, UniProt Q8IVH8)
T18 construct: purchased DiscoverX KINOMEscan

MET(M1250T) = target: T19, MET(M1250T) (Homo sapiens, UniProt P08581, M1250T)
T19 construct: purchased DiscoverX KINOMEscan

MKK7 = target: T20, MKK7 (Homo sapiens, UniProt O14733)
T20 construct: purchased DiscoverX KINOMEscan

NEK7 = target: T21, NEK7 (Homo sapiens, UniProt Q8TDX7)
T21 construct: purchased DiscoverX KINOMEscan

PAK2 = target: T22, PAK2 (Homo sapiens, UniProt Q13177)
T22 construct: purchased DiscoverX KINOMEscan

PAK6 = target: T23, PAK6 (Homo sapiens, UniProt Q9NQU5)
T23 construct: purchased DiscoverX KINOMEscan

PHKG1 = target: T24, PHKG1 (Homo sapiens, UniProt Q16816)
T24 construct: purchased DiscoverX KINOMEscan

PIK3CA = target: T25, PIK3CA (Homo sapiens, UniProt P42336)
T25 construct: purchased DiscoverX KINOMEscan

PIK3CA(E545A) = target: T26, PIK3CA(E545A) (Homo sapiens, UniProt P42336, E545A)
T26 construct: purchased DiscoverX KINOMEscan

PIK3CA(I800L) = target: T27, PIK3CA(I800L) (Homo sapiens, UniProt P42336, I800L)
T27 construct: purchased DiscoverX KINOMEscan

PLK4 = target: T28, PLK4 (Homo sapiens, UniProt O00444)
T28 construct: purchased DiscoverX KINOMEscan

PRKCD = target: T29, PRKCD (Homo sapiens, UniProt Q05655)
T29 construct: purchased DiscoverX KINOMEscan

PRP4 = target: T30, PRP4 (Homo sapiens, UniProt Q13523)
T30 construct: purchased DiscoverX KINOMEscan

RIPK4 = target: T31, RIPK4 (Homo sapiens, UniProt P57078)
T31 construct: purchased DiscoverX KINOMEscan

[2] = target: T32, RSK2(Kin.Dom.2-C-terminal) (Homo sapiens, UniProt P51812)
T32 construct: RSK2(Kin.Dom.2-C-terminal); purchased DiscoverX KINOMEscan

[3] = target: T33, RSK4(Kin.Dom.2-C-terminal) (Homo sapiens, UniProt Q9UK32)
T33 construct: RSK4(Kin.Dom.2-C-terminal); purchased DiscoverX KINOMEscan

SRMS = target: T34, SRMS (Homo sapiens, UniProt Q9H3Y6)
T34 construct: purchased DiscoverX KINOMEscan

SRPK3 = target: T35, SRPK3 (Homo sapiens, UniProt Q9UPE1)
T35 construct: purchased DiscoverX KINOMEscan

TAK1 = target: T36, TAK1 (Homo sapiens, UniProt O43318)
T36 construct: purchased DiscoverX KINOMEscan

[4] = target: T37, TYK2(JH1domain-catalytic) (Homo sapiens, UniProt P29597)
T37 construct: TYK2(JH1domain-catalytic); DNA label for qPCR (T7 phage fusion or DNA tag); purchased DiscoverX scanMAX; host or cells: E. coli BL21-derived (T7 phage) or HEK-293

WEE1 = target: T38, WEE1 (Homo sapiens, UniProt P30291)
T38 construct: DNA label for qPCR (T7 phage fusion or DNA tag); purchased DiscoverX scanMAX; host or cells: E. coli BL21-derived (T7 phage) or HEK-293

YES = target: T39, YES (Homo sapiens, UniProt P07947)
T39 construct: purchased DiscoverX scanMAX; host or cells: E. coli BL21-derived host (T7 phage) or HEK-293

T9 sequence (P54764 20-986): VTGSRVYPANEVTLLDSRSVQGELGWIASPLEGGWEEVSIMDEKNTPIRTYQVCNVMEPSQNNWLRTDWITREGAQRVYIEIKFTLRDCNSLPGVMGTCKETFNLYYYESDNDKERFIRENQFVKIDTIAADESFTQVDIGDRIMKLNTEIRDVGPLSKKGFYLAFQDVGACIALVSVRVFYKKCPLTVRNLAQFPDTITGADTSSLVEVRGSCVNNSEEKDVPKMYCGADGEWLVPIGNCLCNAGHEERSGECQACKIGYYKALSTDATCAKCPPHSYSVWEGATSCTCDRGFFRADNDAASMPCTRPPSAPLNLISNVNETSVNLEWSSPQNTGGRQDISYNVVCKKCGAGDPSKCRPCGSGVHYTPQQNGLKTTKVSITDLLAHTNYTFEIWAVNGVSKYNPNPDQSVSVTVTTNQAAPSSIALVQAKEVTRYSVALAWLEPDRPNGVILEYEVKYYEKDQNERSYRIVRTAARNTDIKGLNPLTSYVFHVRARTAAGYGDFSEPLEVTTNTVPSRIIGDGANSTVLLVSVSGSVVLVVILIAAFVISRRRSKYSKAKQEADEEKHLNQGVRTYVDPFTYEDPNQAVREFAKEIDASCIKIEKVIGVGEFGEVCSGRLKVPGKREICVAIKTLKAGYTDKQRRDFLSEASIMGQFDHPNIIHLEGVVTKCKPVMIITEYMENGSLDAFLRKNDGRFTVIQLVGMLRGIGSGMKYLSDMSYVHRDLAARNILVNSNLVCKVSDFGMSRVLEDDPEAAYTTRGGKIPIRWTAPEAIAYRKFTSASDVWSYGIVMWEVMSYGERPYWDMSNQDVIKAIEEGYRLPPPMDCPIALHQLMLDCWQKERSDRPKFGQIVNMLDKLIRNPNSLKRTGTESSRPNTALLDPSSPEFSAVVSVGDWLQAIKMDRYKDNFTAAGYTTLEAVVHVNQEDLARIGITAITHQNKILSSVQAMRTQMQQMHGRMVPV
T12 sequence (Q92918 whole entry): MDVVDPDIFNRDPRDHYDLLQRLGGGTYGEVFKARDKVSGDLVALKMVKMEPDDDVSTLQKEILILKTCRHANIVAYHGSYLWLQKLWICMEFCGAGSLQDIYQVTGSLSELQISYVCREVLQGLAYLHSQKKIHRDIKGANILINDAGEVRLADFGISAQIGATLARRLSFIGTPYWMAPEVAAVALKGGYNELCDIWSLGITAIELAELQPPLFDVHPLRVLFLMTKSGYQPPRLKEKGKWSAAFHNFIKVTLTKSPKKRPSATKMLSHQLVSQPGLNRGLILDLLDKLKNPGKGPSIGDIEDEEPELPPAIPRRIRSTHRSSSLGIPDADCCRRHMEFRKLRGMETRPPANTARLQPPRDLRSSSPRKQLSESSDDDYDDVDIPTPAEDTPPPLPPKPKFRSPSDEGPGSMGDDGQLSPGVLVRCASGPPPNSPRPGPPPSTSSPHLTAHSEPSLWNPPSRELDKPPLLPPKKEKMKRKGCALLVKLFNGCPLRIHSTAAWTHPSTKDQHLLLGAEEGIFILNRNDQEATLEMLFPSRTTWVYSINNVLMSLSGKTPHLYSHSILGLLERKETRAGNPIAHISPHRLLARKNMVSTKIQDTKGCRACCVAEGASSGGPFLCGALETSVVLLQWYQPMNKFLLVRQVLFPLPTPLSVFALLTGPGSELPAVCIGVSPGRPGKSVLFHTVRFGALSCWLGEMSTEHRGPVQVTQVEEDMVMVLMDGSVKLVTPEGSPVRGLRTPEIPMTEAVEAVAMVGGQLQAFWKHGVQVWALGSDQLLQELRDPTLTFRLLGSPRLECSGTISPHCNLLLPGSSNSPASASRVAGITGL
T28 sequence (O00444 whole entry): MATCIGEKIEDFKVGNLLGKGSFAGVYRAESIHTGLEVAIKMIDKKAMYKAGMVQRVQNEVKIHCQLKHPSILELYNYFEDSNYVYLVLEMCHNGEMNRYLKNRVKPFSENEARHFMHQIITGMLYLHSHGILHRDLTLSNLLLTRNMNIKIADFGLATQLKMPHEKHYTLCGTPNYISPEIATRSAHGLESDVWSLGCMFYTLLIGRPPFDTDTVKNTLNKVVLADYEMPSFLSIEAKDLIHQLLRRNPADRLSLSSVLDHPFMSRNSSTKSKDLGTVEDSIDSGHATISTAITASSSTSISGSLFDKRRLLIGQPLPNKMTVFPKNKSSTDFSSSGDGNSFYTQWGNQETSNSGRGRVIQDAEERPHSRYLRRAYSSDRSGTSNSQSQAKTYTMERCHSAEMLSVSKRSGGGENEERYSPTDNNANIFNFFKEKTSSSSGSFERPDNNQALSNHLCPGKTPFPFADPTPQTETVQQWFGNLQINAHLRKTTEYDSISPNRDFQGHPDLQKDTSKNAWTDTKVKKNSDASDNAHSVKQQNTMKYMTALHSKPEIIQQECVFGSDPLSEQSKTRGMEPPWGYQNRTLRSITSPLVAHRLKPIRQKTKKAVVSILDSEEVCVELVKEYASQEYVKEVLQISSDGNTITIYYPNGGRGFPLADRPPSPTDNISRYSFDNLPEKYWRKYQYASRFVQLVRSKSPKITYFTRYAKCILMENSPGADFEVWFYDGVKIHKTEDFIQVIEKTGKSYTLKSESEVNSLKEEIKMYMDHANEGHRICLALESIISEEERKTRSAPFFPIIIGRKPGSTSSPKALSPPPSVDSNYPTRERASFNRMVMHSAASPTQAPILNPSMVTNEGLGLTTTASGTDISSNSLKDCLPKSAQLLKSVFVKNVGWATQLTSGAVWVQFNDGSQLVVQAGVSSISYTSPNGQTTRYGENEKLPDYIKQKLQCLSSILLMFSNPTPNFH
T18 sequence (Q8IVH8 whole entry): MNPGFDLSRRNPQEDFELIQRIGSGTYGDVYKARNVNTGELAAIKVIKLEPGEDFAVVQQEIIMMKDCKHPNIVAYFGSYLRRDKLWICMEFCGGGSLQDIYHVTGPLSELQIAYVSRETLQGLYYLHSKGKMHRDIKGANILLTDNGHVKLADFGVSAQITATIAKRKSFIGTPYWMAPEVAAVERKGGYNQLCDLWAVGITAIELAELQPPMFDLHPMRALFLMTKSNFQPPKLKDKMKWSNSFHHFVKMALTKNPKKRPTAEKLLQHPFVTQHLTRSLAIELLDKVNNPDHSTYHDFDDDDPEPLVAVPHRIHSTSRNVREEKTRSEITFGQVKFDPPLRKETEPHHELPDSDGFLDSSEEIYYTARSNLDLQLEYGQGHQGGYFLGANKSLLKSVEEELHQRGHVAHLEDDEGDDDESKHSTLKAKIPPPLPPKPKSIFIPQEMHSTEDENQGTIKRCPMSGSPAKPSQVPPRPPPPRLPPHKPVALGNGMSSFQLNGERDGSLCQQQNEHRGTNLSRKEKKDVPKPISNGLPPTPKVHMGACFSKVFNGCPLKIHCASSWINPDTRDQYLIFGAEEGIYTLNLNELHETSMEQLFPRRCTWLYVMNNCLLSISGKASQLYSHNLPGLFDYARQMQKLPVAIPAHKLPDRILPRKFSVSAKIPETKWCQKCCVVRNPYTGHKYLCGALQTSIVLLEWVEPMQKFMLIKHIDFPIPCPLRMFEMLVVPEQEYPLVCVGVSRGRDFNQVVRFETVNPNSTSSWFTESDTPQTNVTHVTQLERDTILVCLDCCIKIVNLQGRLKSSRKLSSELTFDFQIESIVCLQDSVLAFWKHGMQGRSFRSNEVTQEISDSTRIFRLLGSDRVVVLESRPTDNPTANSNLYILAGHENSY
T34 sequence (Q9H3Y6 whole entry): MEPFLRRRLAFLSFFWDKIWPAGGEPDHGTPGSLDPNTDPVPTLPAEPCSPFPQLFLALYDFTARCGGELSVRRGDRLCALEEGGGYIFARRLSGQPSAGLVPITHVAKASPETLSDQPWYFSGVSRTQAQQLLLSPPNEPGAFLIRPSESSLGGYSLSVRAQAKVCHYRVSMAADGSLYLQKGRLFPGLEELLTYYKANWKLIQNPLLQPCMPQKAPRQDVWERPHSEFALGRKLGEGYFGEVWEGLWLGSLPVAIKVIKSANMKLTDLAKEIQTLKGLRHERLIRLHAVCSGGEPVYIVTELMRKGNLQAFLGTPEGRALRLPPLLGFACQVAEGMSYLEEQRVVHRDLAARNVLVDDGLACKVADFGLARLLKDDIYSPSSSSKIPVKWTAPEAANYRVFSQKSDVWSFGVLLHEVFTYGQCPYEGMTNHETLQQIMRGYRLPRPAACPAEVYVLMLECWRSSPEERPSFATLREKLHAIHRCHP
T33 sequence (Q9UK32 401-745 limits assumed): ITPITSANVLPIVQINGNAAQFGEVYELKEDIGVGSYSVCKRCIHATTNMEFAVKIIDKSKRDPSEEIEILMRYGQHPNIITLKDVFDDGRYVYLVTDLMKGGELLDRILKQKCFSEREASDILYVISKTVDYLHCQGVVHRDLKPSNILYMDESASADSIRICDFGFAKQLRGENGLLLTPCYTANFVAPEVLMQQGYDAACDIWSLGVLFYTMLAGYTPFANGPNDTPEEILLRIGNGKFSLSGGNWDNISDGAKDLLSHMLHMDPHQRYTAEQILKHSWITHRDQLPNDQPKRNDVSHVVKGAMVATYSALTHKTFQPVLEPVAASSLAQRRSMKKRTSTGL
T37 sequence (P29597 897-1176 limits assumed): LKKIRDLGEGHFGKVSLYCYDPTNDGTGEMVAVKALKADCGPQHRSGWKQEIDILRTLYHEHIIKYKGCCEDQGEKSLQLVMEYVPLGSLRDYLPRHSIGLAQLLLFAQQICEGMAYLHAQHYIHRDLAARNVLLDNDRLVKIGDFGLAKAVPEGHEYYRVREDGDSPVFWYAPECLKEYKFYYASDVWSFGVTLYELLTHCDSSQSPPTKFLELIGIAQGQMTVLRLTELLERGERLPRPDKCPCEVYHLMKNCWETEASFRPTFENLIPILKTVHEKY

## CC(C)c1ccc(CC(=O)N2CCN(c3ccc(C#N)nn3)CC2)cc1 [PZ-2891, 6-(4-(2-(4-isopropylphenyl)acetyl)piperazin-1-yl)pyridazine-3-carbonitrile]
[1]
  remaining binding at 10 µM: 89%
ACVR1
  remaining binding at 10 µM: 88%
BRSK2
  remaining binding at 10 µM: 81%
CSNK1G1
  remaining binding at 10 µM: 92%
DCAMKL2
  remaining binding at 10 µM: 89%
EGFR(G719S)
  remaining binding at 10 µM: 91%
EGFR(L858R)
  remaining binding at 10 µM: 84%
EPHA2
  remaining binding at 10 µM: 100%
EPHA4
  remaining binding at 10 µM: 93%
EPHA7
  remaining binding at 10 µM: 92%
GSK3A
  remaining binding at 10 µM: 83%
HPK1
  remaining binding at 10 µM: 100%
IRAK4
  remaining binding at 10 µM: 93%
LIMK1
  remaining binding at 10 µM: 87%
LKB1
  remaining binding at 10 µM: 93%
LOK
  remaining binding at 10 µM: 86%
MAP3K3
  remaining binding at 10 µM: 65%
MAP4K3
  remaining binding at 10 µM: 94%
MET(M1250T)
  remaining binding at 10 µM: 98%
MKK7
  remaining binding at 10 µM: 84%
NEK7
  remaining binding at 10 µM: 75%
PAK2
  remaining binding at 10 µM: 44%
PAK6
  remaining binding at 10 µM: 100%
PHKG1
  remaining binding at 10 µM: 88%
PIK3CA
  remaining binding at 10 µM: 95%
PIK3CA(E545A)
  remaining binding at 10 µM: 64%
PIK3CA(I800L)
  remaining binding at 10 µM: 42%
PLK4
  remaining binding at 10 µM: 88%
PRKCD
  remaining binding at 10 µM: 89%
PRP4
  remaining binding at 10 µM: 86%
RIPK4
  remaining binding at 10 µM: 81%
[2]
  remaining binding at 10 µM: 89%
[3]
  remaining binding at 10 µM: 71%
SRMS
  remaining binding at 10 µM: 72%
SRPK3
  remaining binding at 10 µM: 67%
TAK1
  remaining binding at 10 µM: 67%
[4]
  remaining binding at 10 µM: 67%
WEE1
  remaining binding at 10 µM: 92%
YES
  remaining binding at 10 µM: 90%
